The values that follow are results of earlier work, collected in PMC3005221 (Biochemistry, 2010).

One may read the Kd as a measure of binding affinity in units of concentration.

For the data set, the target named is HDAC6 BUZ domain. As to conditions: read-out: KD for HDAC6 BUZ domain (reported); full-length ubiquitin.

With ubiquitin, the Kd was 60 nM.
